{
  "source": "patent US20120053165A1",
  "about": "“Novel Phenyl Imidazoles and Phenyl Triazoles As Gamma-Secretase Modulators” (Pfizer Inc., priority 2009, published 2012)",
  "note": "Where a name gives a salt, the structure may show the parent alone.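 Further: Aβ(1-42) released into conditioned medium captured by ELISA after roughly 24 h compound exposure, vehicle and inhibitor controls defining maximal and minimal inhibition.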",
  "data": [
    {"test_system": "production of amyloid beta protein Aβ(1-42) in human WT-APP overexpressing CHO cells", "details": "Homo sapiens, CHO, read-out: Aβ 42 IC50", "units": {"IC50": "nM"}, "protocol": "Cell-Based γ-Secretase Assay with ELISA Readout\nThe ability of compounds to modulate production of amyloid beta protein Aβ(1-42) was determined using human WT-APP overexpressing CHO cells. Cells were plated at 22,000 cells/100 μL well in 96 well tissue culture treated, clear plates (Falcon) in DMEM/F12 based medium and incubated for 24 hours at 37° C. […] Compounds were added in fresh medium to achieve 1% final DMSO. Appropriate vehicle and inhibitor controls were added to obtain maximum and minimum inhibition values for the assay before the plates were incubated for about 24 hours at 37° C.\nCoating of ELISA assay plates was initiated by addition of 50 μL/well of an in house Aβ(1-42) specific antibody at (4 μg/mL) in 0.1 M NaHCO3 (pH 9.0) into black 384-well Maxisorp® plates (Nunc) and incubated overnight at 4° C. […] Ambient temperature incubation was allowed to proceed for a minimum of two hours before washing 2×100 μL with Wash Buffer (Dulbecco's PBS, 0.05% Tween 20). Assay Buffer (Dulbecco's PBS, 1.0% BSA (Sigma A7030), 0.05% Tween 20) 20 μL/well is then added.\nAfter incubation overnight at 37° C., 5% CO2, 40 μL (in duplicate) of experimental conditioned media are transferred into wells of the blocked ELISA plates containing the capture antibody, followed by overnight incubation at 4° C.\nAfter overnight incubation of the ELISA assay plates at 4° C., unbound Aβ peptides were removed thorough (4×100 μL) washes with Wash Buffer.", "values": [
      {"smiles": "COc1cc(C(=O)NCCc2c(C)[nH]c3c(Cl)cc(Cl)cc23)ccc1-n1cnc(C)c1", "note": "[Example 51, N-[2-(5,7-dichloro-2-methyl-1H-indol-3-yl)ethyl]-3-methoxy-4-(4-methyl-1H-imidazol-1-yl)benzamide]", "IC50": 189},
      {"smiles": "COc1cc(C(=O)NC2COc3ccc(Cl)cc32)ccc1-n1cnc(C)c1", "note": "(single isomer, unassigned) [Example 128, N-(5-chloro-2,3-dihydro-1-benzofuran-3-yl)-3-methoxy-4-(4-methyl-1H-imidazol-1-yl)benzamide]", "IC50": 521},
      {"smiles": "COc1cc(C(=O)NCCc2ccc(C)c(C)c2)ccc1-n1cnc(C)c1", "note": "[Example 64, N-[2-(3,4-dimethyl-phenyl)ethyl]-3-methoxy-4-(4-methyl-1H-imidazol-1-yl)benzamide]", "IC50": 395},
      {"smiles": "COc1cc(C(=O)NCCc2c(C)[nH]c3ccc(C)cc23)ccc1-n1cnc(C)c1", "note": "[Example 73, N-[2-(2,5-dimethyl-1H-indol-3-yl)ethyl]-3-methoxy-4-(4-methyl-1H-imidazol-1-yl)benzamide]", "IC50": 444}
    ]},
    {"test_system": "production of amyloid beta protein Aβ(1-42) in human WT-APP overexpressing CHO cells", "details": "Homo sapiens, CHO, read-out: Aβ 42 IC50, Geometric mean of 2-8 determinations; human WT-APP overexpressing CHO cells", "units": {"IC50": "nM"}, "values": [
      {"smiles": "COc1cc(C(=O)N2CC(c3cccc(Cl)c3)C2)ccc1-n1cnc(C)c1", "note": "[Example 18, 1-(4-{[3-(3-chlorophenyl)azetidin-1-yl]carbonyl}-2-methoxy-phenyl)-4-methyl-1H-imidazole]", "IC50": 660},
      {"smiles": "COc1cc(C(=O)NCCCc2ccc(F)cc2)ccc1-n1cnc(C)c1", "note": "[Example 81, N-[3-(4-fluorophenyl)propyl]-3-methoxy-4-(4-methyl-1H-imidazol-1-yl)benzamide]", "IC50": 504},
      {"smiles": "COc1cc(C(=O)NCc2cccc(OC(F)(F)F)c2)ccc1-n1cnc(C)c1", "note": "[Example 55, 3-methoxy-4-(4-methyl-1H-imidazol-1-yl)-N-[3-(trifluoromethoxy)benzyl]benzamide]", "IC50": 332},
      {"smiles": "COc1cc(C(=O)NC2COc3c(F)cc(Cl)cc32)ccc1-n1cnc(C)c1", "note": "(single isomer, unassigned) [Example 127, N-(5-chloro-7-fluoro-2,3-dihydro-1-benzofuran-3-yl)-3-methoxy-4-(4-methyl-1H-imidazol-1-yl)benzamide trifluoroacetate salt]", "IC50": 521},
      {"smiles": "COc1cc(C(=O)NC2CCCc3c(O)cccc32)ccc1-n1cnc(C)c1", "note": "(stereo not shown) [Example 106, N-(5-hydroxy-1,2,3,4-tetrahydronaphthalen-1-yl)-3-methoxy-4-(4-methyl-1H-imidazol-1-yl)benzamide]", "IC50": 731},
      {"smiles": "COc1cc(C(=O)NCC(C)Oc2ccccc2Cl)ccc1-n1cnc(C)c1", "note": "(stereo not shown) [Example 74, N-[2-(2-chlorophenoxy)propyl]-3-methoxy-4-(4-methyl-1H-imidazol-1-yl)benzamide]", "IC50": 466},
      {"smiles": "COc1cc(C(=O)NCc2csc(-c3ccc(C(F)(F)F)cc3)n2)ccc1-n1cnc(C)c1", "note": "[Example 50, 3-methoxy-4-(4-methyl-1H-imidazol-1-yl)-N-({2-[4-(trifluoromethyl)phenyl]-1,3-thiazol-4-yl}methyl)benzamide]", "IC50": 152},
      {"smiles": "COc1cc(C(=O)N2CCC(Oc3ccccc3OC(F)(F)F)CC2)ccc1-n1cnc(C)c1", "note": "[Example 93, 1-[3-methoxy-4-(4-methyl-1H-imidazol-1-yl)benzoyl]-4-[2-(trifluoromethoxy)phenoxy]piperidine]", "IC50": 602},
      {"smiles": "COc1cc(C(=O)N2CCC(Oc3cccc(C(F)(F)F)c3)CC2)ccc1-n1cnc(C)c1", "note": "[Example 119, 1-[3-methoxy-4-(4-methyl-1H-imidazol-1-yl)benzoyl]-4-[3-(trifluoromethyl)phenoxy]piperidine]", "IC50": 847},
      {"smiles": "COc1cc(C(=O)NCC(c2ccc(C(F)(F)F)cc2)N2CCOCC2)ccc1-n1cnc(C)c1", "note": "(stereo not shown) [Example 111, 3-methoxy-4-(4-methyl-1H-imidazol-1-yl)-N-{2-morpholin-4-yl-2-[4-(trifluoromethyl)phenyl]ethyl}benzamide]", "IC50": 756}
    ]},
    {"test_system": "production of amyloid beta protein Aβ(1-42) in human WT-APP overexpressing CHO cells", "details": "Homo sapiens, CHO, read-out: Aβ 42 IC50, Geometric mean of at least 2 determinations; human WT-APP overexpressing CHO cells", "units": {"IC50": "nM"}, "values": [
      {"smiles": "COc1cc(C(=O)N2CC(COc3cccc4c3CCC4)C2)ccc1-n1cnc(C)c1", "note": "[Example 137, 1-[4-({3-[(2,3-dihydro-1H-inden-4-yloxy)methyl]azetidin-1-yl}carbonyl)-2-methoxyphenyl]-4-methyl-1H-imidazole trifluoroacetate salt]", "IC50": 411}
    ]},
    {"test_system": "production of amyloid beta protein Aβ(1-42) in human WT-APP overexpressing CHO cells", "details": "Homo sapiens, CHO, read-out: GM Aβ 42B IC50, Geometric Mean of 2-8 Determinations; human WT-APP overexpressing CHO cells", "units": {"IC50": "nM"}, "values": [
      {"smiles": "COc1cc(C(=O)NCC(C)(O)c2ccc(Cl)cc2)ccc1-n1cnc(C)c1", "note": "(stereo not shown) [Example 2, N-[2-(4-chlorophenyl)-2-hydroxypropyl]-3-methoxy-4-(4-methyl-1H-imidazol-1-yl)benzamide]", "IC50": 942},
      {"smiles": "COc1cc(C(=O)NCCc2cccc(C#N)c2)ccc1-n1cnc(C)c1", "note": "[Example 1, N-[2-(3-cyanophenyl)ethyl]-3-methoxy-4-(4-methyl-1H-imidazol-1-yl)benzamide]", "IC50": 2920}
    ]},
    {"test_system": "production of amyloid beta protein Aβ(1-42) in human WT-APP overexpressing CHO cells", "details": "read-out: Aβ 42 IC50; Geometric mean of 2-8 determinations; human WT-APP overexpressing CHO cells", "units": {"IC50": "nM"}, "values": [
      {"smiles": "COc1cc(C(=O)N(C)Cc2ccc3ccccc3c2)ccc1-n1cnc(C)c1", "note": "[Example 22, 3-methoxy-N-methyl-4-(4-methyl-1H-imidazol-1-yl)-N-(2-naphthyl-methyl) benzamide]", "IC50": 977},
      {"smiles": "COc1cc(C(=O)NCc2cccc(Cl)c2)ccc1-n1cnc(C)c1", "note": "[Example 84, N-(3-chlorobenzyl)-3-methoxy-4-(4-methyl-1H-imidazol-1-yl) benzamide]", "IC50": 520},
      {"smiles": "COc1cc(C(=O)NCc2c(C)cccc2NS(C)(=O)=O)ccc1-n1cnc(C)c1", "note": "[Example 102, 3-methoxy-4-(4-methyl-1H-imidazol-1-yl)-N-{2-methyl-6-[(methyl-sulfonyl)amino]benzyl} benzamide]", "IC50": 689},
      {"smiles": "COc1cc(C(=O)NCCc2cc(C)ccc2C)ccc1-n1cnc(C)c1", "note": "[Example 71, N-[2-(2,5-dimethylphenyl)ethyl]-3-methoxy-4-(4-methyl-1H-imidazol-1-yl) benzamide]", "IC50": 429},
      {"smiles": "COc1cc(C(=O)NC(CCC(C)C)c2ccc(C(F)(F)F)cc2)ccc1-n1cnc(C)c1", "note": "(stereo not shown) [Example 29, 3-methoxy-4-(4-methyl-1H-imidazol-1-yl)-N-{4-methyl-1-[4-(trifluoro-methyl)phenyl]pentyl} benzamide]", "IC50": 861},
      {"smiles": "COc1cc(C(=O)N(Cc2cc(-c3ccccc3)ccc2C)C2CC2)ccc1-n1cnc(C)c1", "note": "[Example 123, N-cyclopropyl-3-methoxy-N-[(4-methylbi-phenyl-3-yl)methyl]-4-(4-methyl-1H-imidazol-1-yl) benzamide]", "IC50": 73},
      {"smiles": "COc1cccc(C[C@@H]2CCC[C@@H]2NC(=O)c2ccc(-n3cnc(C)c3)c(OC)c2)c1", "note": "[Example 63, 3-methoxy-N-[(1S,2S)-2-(3-methoxybenzyl)cyclopentyl]-4-(4-methyl-1H-imidazol-1-yl) benzamide]", "IC50": 391},
      {"smiles": "COc1cc(C(=O)NCc2ccc(F)c(C(F)(F)F)c2)ccc1-n1cnc(C)c1", "note": "[Example 66, N-[4-fluoro-3-(trifluoromethyl)benzyl]-3-methoxy-4-(4-methyl-1H-imidazol-1-yl) benzamide]", "IC50": 410},
      {"smiles": "COc1ccc(C2(CNC(=O)c3ccc(-n4cnc(C)c4)c(OC)c3)CCCC2)cc1", "note": "[Example 105, 3-methoxy-N-{[1-(4-methoxyphenyl)cyclopentyl]methyl}-4-(4-methyl-1H-imidazol-1-yl) benzamide]", "IC50": 708},
      {"smiles": "COc1cc(C(=O)NCc2cccc(Oc3ccccc3)c2)ccc1-n1cnc(C)c1", "note": "[Example 60, 3-methoxy-4-(4-methyl-1H-imidazol-1-yl)-N-(3-phenoxybenzyl) benzamide]", "IC50": 353},
      {"smiles": "COc1cc(C(=O)NC(c2ccccc2Cl)c2nc3ccccc3n2C)ccc1-n1cnc(C)c1", "note": "(stereo not shown) [Example 96, N-[(2-chlorophenyl)(1-methyl-1H-benzimidazol-2-yl)methyl]-3-methoxy-4-(4-methyl-1H-imidazol-1-yl) benzamide]", "IC50": 630},
      {"smiles": "COc1cc(C(=O)NCC2(c3cccc(C(F)(F)F)c3)CCOCC2)ccc1-n1cnc(C)c1", "note": "[Example 19, 3-methoxy-4-(4-methyl-1H-imidazol-1-yl)-N-({4-[3-(tri-fluoromethyl)phenyl]tetrahydro-2H-pyran-4-yl}methyl) benzamide]", "IC50": 757},
      {"smiles": "COc1cc(C(=O)NCCc2c[nH]c3ccc(C)cc23)ccc1-n1cnc(C)c1", "note": "[Example 97, 3-methoxy-4-(4-methyl-1H-imidazol-1-yl)-N-[2-(5-methyl-1H-indol-3-yl)ethyl] benzamide]", "IC50": 634},
      {"smiles": "COc1cc(C(=O)NC(C)Cc2ccc(C(F)(F)F)cc2)ccc1-n1cnc(C)c1", "note": "(stereo not shown) [Example 88, 3-methoxy-4-(4-methyl-1H-imidazol-1-yl)-N-{1-methyl-2-[4-(trifluoromethyl)phenyl]ethyl} benzamide]", "IC50": 561},
      {"smiles": "COc1cc(C(=O)NCc2ccc(Cl)c(Cl)c2)ccc1-n1cnc(C)c1", "note": "[Example 67, N-(3,4-dichlorobenzyl)-3-methoxy-4-(4-methyl-1H-imidazol-1-yl) benzamide]", "IC50": 410},
      {"smiles": "COc1cc(C(=O)NCCc2cccc(Cl)c2)ccc1-n1cnc(C)c1", "note": "[Example 21, N-[2-(3-chloro-phenyl)ethyl]-3-methoxy-4-(4-methyl-1H-imidazol-1-yl) benzamide]", "IC50": 629},
      {"smiles": "COc1cc(C(=O)NCc2cc3ccccc3s2)ccc1-n1cnc(C)c1", "note": "[Example 87, N-(1-benzothien-2-ylmethyl)-3-methoxy-4-(4-methyl-1H-imidazol-1-yl) benzamide]", "IC50": 560},
      {"smiles": "COc1cc(C(=O)NCCc2nc3cccc(Cl)c3o2)ccc1-n1cnc(C)c1", "note": "[Example 68, N-[2-(7-chloro-1,3-benzoxazol-2-yl)ethyl]-3-methoxy-4-(4-methyl-1H-imidazol-1-yl) benzamide]", "IC50": 418},
      {"smiles": "COc1cc(C(=O)NCCc2nc3ccc(Cl)cc3o2)ccc1-n1cnc(C)c1", "note": "[Example 38, N-[2-(6-chloro-1,3-benzoxazol-2-yl)ethyl]-3-methoxy-4-(4-methyl-1H-imidazol-1-yl) benzamide]", "IC50": 354},
      {"smiles": "COc1cc(C(=O)NC2(Cc3cccc(Cl)c3)CC2)ccc1-n1cnc(C)c1", "note": "[Example 92, N-[1-(3-chlorobenzyl)cyclopropyl]-3-methoxy-4-(4-methyl-1H-imidazol-1-yl) benzamide]", "IC50": 595}
    ]}
  ]
}
